Consider 16 molecules from patent publication US9708336B2, “Metallo-beta-lactamase inhibitors” (priority 2014, dated 2017).

Molecules are shown by their SMILES. pIC50: −log10 of the molar value. Where two headings read alike, the source gives them in different places. Where only a bound is given, the exact number is not on record here.

The target in one test is VIM-1 (Pseudomonas aeruginosa (strain ATCC 15692 / DSM 22644 / CIP 104116 / JCM 14847 / LMG 12228 / 1C / PRS 101 / PAO1), UniProt A0A0F7KYQ8). As to the kind of experiment: Enzyme activity: determination of IC50, fluorescence assay with CCF2-FA substrate (VIM-1). The class given is biochemical.
Another test concerns the target NDM-1 (Klebsiella pneumoniae, UniProt C7C422). As to the kind of experiment: biochemical. As to conditions: fluorescence assay with CCF2-FA substrate; read-out: NDM-1 IC50. The class given is biochemical.
In test [1] the test system is Escherichia coli expressing NDM-1 (CLB30016). The experiment in a line: Antibiotic potentiation activity: synergistic concentration (MITC95) with imipenem, OD600 growth. Type of test: cell-based. To be noted: CLB30016 (NDM-1), 95% inhibition of bacterial growth. An outline of the steps:
(§1)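 Steps: colonies grown overnight at 35 °C; resuspended in saline to OD600 0.11–0.15 by strain; diluted 1:100 into 1.1× CAMHB; imipenem then compound added (antibiotic 4 μg/ml in assay); incubated 35 °C for 22–24 h; absorbance measured.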

The subject of test [2] is Serratia marcescens expressing IMP-1 (CL5741). Described as above. The class given is cell-based. To be noted: CL5741 (IMP-1), 95% inhibition of bacterial growth. An outline of the steps:
as §1

The test system of test [3] is Klebsiella pneumoniae expressing VIM-1 (IHMA599644). The test is described as above. Type of test: cell-based. As to conditions: IHMA599644 (VIM-1), 95% inhibition of bacterial growth. An outline of the steps:
as §1

Another test concerns the target IMP-1 (Serratia marcescens, UniProt P52699). The experiment in a line: biochemical. Type of test: biochemical. To be noted: fluorescence assay with CCF2-FA substrate; read-out: IMP-1 IC50.
Where [4] appears, read: fluorescence assay with CCF2-FA substrate, read-out: VIM-1 IC50.
Setting [5] is: VIM-1 IC50, fluorescence assay with CCF2-FA substrate.

IMP-1, sequence (P52699 whole entry, looked up): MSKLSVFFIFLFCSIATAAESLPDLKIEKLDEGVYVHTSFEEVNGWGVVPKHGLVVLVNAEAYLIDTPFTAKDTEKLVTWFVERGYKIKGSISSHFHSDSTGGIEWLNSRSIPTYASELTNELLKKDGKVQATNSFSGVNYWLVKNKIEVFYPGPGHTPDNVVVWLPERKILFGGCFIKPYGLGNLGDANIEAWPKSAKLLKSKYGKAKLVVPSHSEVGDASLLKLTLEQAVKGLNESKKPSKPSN
NDM-1, sequence (C7C422 whole entry, looked up, species assumed): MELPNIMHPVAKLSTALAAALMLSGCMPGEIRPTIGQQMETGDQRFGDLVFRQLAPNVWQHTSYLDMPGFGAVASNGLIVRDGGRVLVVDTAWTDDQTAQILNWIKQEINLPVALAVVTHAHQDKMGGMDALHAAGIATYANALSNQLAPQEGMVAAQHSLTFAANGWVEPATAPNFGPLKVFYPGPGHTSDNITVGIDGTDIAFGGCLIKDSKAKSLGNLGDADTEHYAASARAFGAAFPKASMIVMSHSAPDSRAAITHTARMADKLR

For `NS(=O)(=O)c1c(C(F)(F)F)ccc(-c2ccc(C3CCN(CC4CCNC4)CC3)cc2)c1-c1nnn[nH]1` (stereo not drawn) [Example 795, 4′-[1-(pyrrolidin-3-ylmethyl)piperidin-4-yl]-2-(1H-tetrazol-5-yl)-4-(trifluoromethyl)biphenyl-3-sulfonamide], the pIC50 (usually −log10 of the IC50, conventionally taken in molar units) at VIM-1 (setting [4]) is 8.18; on NDM-1 it was 8.28; on IMP-1, 8.96. Besides, in test [1], the “Escherichia coli MITC95” value was 1.563 µM. Further, the “Serratia marcescens MITC95” value in test [2] turned out to be 3.125 µM. Also, in test [3], the “Klebsiella pneumoniae MITC95” value turned out to be 25 µM.
For the molecule `NS(=O)(=O)c1c(C(F)(F)F)ccc(-c2ccc(C3CCN(C4CNC4)CC3)cc2)c1-c1nnn[nH]1` [Example 796, 4′-(1-azetidin-3-ylpiperidin-4-yl)-2-(1H-tetrazol-5-yl)-4-(trifluoromethyl)biphenyl-3-sulfonamide], the negative-log IC50 (pIC50) was 7.75 on VIM-1 (setting [5]), 8.69 at NDM-1 and 9.46 at IMP-1. In addition, in test [1], the “Escherichia coli MITC95” value was found to be 6.25 µM. Also, in test [2], the “Serratia marcescens MITC95” value came out at 6.25 µM. In addition, the “Klebsiella pneumoniae MITC95” value in test [3] was >200 µM.
Regarding `NS(=O)(=O)c1c(C(F)(F)F)ccc(-c2ccc(C3CCN(C4CC5(CCNCC5)C4)CC3)cc2)c1-c1nnn[nH]1` [Example 797, 4′-[1-(7-azaspiro[3.5]non-2-yl)piperidin-4-yl]-2-(1H-tetrazol-5-yl)-4-(trifluoromethyl)biphenyl-3-sulfonamide], the pIC50 on VIM-1 (setting [4]) is 8.00; at NDM-1, 8.25; at IMP-1, 8.82. The “Escherichia coli MITC95” value in test [1] came out at 3.125 µM. Besides, the “Serratia marcescens MITC95” value in test [2] came to 3.125 µM. Moreover, the “Klebsiella pneumoniae MITC95” value in test [3] came to 25 µM.
As for `CNC1CC(N2CCC(c3ccc(-c4ccc(C(F)(F)F)c(S(N)(=O)=O)c4-c4nnn[nH]4)cc3)CC2)C1` (stereo not drawn) [Example 799, 4′-{1-[3-(methylamino)cyclobutyl]piperidin-4-yl}-2-(1H-tetrazol-5-yl)-4-(trifluoromethyl)biphenyl-3-sulfonamide], the figures for the negative logarithm of the IC50 (pIC50) at VIM-1 (setting [4]), at NDM-1 and on IMP-1 were 7.82, 8.41 and 8.98, respectively. The “Escherichia coli MITC95” value in test [1] was determined as 3.125 µM. The “Serratia marcescens MITC95” value in test [2] worked out at 3.125 µM. For the same molecule, the “Klebsiella pneumoniae MITC95” value in test [3] was >200 µM.
Consider `NS(=O)(=O)c1c(C(F)(F)F)ccc(-c2ccc(C3CN(CC4CNC4)C3)cc2)c1-c1nnn[nH]1` [Example 800, 4′-[1-(azetidin-3-ylmethyl)azetidin-3-yl]-2-(1H-tetrazol-5-yl)-4-(trifluoromethyl)biphenyl-3-sulfonamide], for which the negative-log IC50 (pIC50) is 7.84 at VIM-1 (setting [4]), 8.57 at NDM-1 and 8.29 at IMP-1. In addition, the “Escherichia coli MITC95” value in test [1] amounted to 0.7813 µM. Also, the “Serratia marcescens MITC95” value in test [2] is 6.25 µM. Besides, the “Klebsiella pneumoniae MITC95” value in test [3] is 12.5 µM.
For `NS(=O)(=O)c1c(C(F)(F)F)ccc(-c2ccc(C3CN(C4CCNC4)C3)cc2)c1-c1nnn[nH]1` (stereo not drawn) [Example 801, 4′-(1-pyrrolidin-3-ylazetidin-3-yl)-2-(1H-tetrazol-5-yl)-4-(trifluoromethyl)biphenyl-3-sulfonamide], the pIC50 at VIM-1 (setting [4]) is 8.02; at NDM-1, 8.65; at IMP-1, 8.55. The “Escherichia coli MITC95” value in test [1] came to 3.125 µM. The “Serratia marcescens MITC95” value in test [2] came out at 6.25 µM. Moreover, in test [3], the “Klebsiella pneumoniae MITC95” value stood at 100 µM.
With `NS(=O)(=O)c1c(C(F)(F)F)ccc(-c2ccc(C3CN(C4CCNCC4)C3)cc2)c1-c1nnn[nH]1` [Example 802, 4′-(1-piperidin-4-ylazetidin-3-yl)-2-(1H-tetrazol-5-yl)-4-(trifluoromethyl)biphenyl-3-sulfonamide], the pIC50 at VIM-1 (setting [4]) was 7.76; on NDM-1, 8.49; at IMP-1, 8.37. Besides, the “Escherichia coli MITC95” value in test [1] was 6.25 µM. The “Serratia marcescens MITC95” value in test [2] is 6.25 µM. Moreover, the “Klebsiella pneumoniae MITC95” value in test [3] amounted to 100 µM.
With `NS(=O)(=O)c1c(C(F)(F)F)ccc(-c2ccc(C3CN(CCC4CCNCC4)C3)cc2)c1-c1nnn[nH]1` [Example 803, 4′-[1-(2-piperidin-4-ylethyl)azetidin-3-yl]-2-(1H-tetrazol-5-yl)-4-(trifluoromethyl)biphenyl-3-sulfonamide], the figures for the pIC50 against VIM-1 (setting [5]), on NDM-1 and on IMP-1 were 7.88, 8.31 and 7.89, respectively. Also, the “Escherichia coli MITC95” value in test [1] is 6.25 µM. Besides, in test [2], the “Serratia marcescens MITC95” value was 6.25 µM. Moreover, in test [3], the “Klebsiella pneumoniae MITC95” value is 100 µM.
For the molecule `NS(=O)(=O)c1c(C(F)(F)F)ccc(-c2ccc(C3CN(C4CC5(CCNCC5)C4)C3)cc2)c1-c1nnn[nH]1` [Example 805, 4′-[1-(7-azaspiro[3.5]non-2-yl)azetidin-3-yl]-2-(1H-tetrazol-5-yl)-4-(trifluoromethyl)biphenyl-3-sulfonamide], the results for the pIC50 at VIM-1 (setting [4]), on NDM-1 and on IMP-1 were 7.71, 8.42 and 8.12, respectively. The “Escherichia coli MITC95” value in test [1] stood at 3.125 µM. In addition, the “Serratia marcescens MITC95” value in test [2] is 6.25 µM. For the same molecule, the “Klebsiella pneumoniae MITC95” value in test [3] stood at 50 µM.
As for `NC1(CN2CC(c3ccc(-c4ccc(C(F)(F)F)c(S(N)(=O)=O)c4-c4nnn[nH]4)cc3)C2)CC1` [Example 806, 4′-{1-[(1-aminocyclopropyl)methyl]azetidin-3-yl}-2-(1H-tetrazol-5-yl)-4-(trifluoromethyl)biphenyl-3-sulfonamide], the pIC50 is 8.30 at VIM-1 (setting [4]), 8.33 on NDM-1 and 8.12 on IMP-1. The “Escherichia coli MITC95” value in test [1] is 6.25 µM. Further, the “Serratia marcescens MITC95” value in test [2] is 6.25 µM. Besides, the “Klebsiella pneumoniae MITC95” value in test [3] came out at 12.5 µM.
For the molecule `NC1CC(N2CC(c3ccc(-c4ccc(C(F)(F)F)c(S(N)(=O)=O)c4-c4nnn[nH]4)cc3)C2)C1` (stereo not drawn) [Example 807, 4′-[1-(3-aminocyclobutyl)azetidin-3-yl]-2-(1H-tetrazol-5-yl)-4-(trifluuromethyl)biphenyl-3-sulfonamide], the results for the pIC50 on VIM-1 (setting [4]), on NDM-1 and at IMP-1 were 7.70, 8.40 and 8.29, respectively. In addition, the “Escherichia coli MITC95” value in test [1] worked out at 1.563 µM. Moreover, in test [2], the “Serratia marcescens MITC95” value came to 6.25 µM. In test [3], the “Klebsiella pneumoniae MITC95” value was 25 µM.
For `NC1CCC(N2CC(c3ccc(-c4ccc(C(F)(F)F)c(S(N)(=O)=O)c4-c4nnn[nH]4)cc3)C2)C1` (stereo not drawn) [Example 808, 4′-[1-(3-aminocyclopentyl)azetidin-3-yl]-2-(1H-tetrazol-5-yl)-4-(trifluoromethyl)biphenyl-3-sulfonamide], the pIC50 is 7.60 on VIM-1 (setting [4]), 8.45 at NDM-1 and 8.07 at IMP-1. In addition, the “Escherichia coli MITC95” value in test [1] turned out to be 1.563 µM. The “Serratia marcescens MITC95” value in test [2] worked out at 3.125 µM. For the same molecule, in test [3], the “Klebsiella pneumoniae MITC95” value stood at 25 µM.
In the case of `NC1CCCC(N2CC(c3ccc(-c4ccc(C(F)(F)F)c(S(N)(=O)=O)c4-c4nnn[nH]4)cc3)C2)C1` (stereo not drawn) [Example 810, 4′-[1-(3-aminocyclohexyl)azetidin-3-yl]-2-(1H-tetrazol-5-yl)-4-(trifluoromethyl)biphenyl-3-sulfonamide], the pIC50 is 7.57 at VIM-1 (setting [4]), 8.15 on NDM-1 and 8.05 at IMP-1. Besides, in test [1], the “Escherichia coli MITC95” value stood at 3.125 µM. For the same molecule, the “Serratia marcescens MITC95” value in test [2] amounted to 6.25 µM. Besides, in test [3], the “Klebsiella pneumoniae MITC95” value worked out at 100 µM.
`NC1CCCC1N1CC(c2ccc(-c3ccc(C(F)(F)F)c(S(N)(=O)=O)c3-c3nnn[nH]3)cc2)C1` (stereo not drawn) [Example 811, 4′-[1-(2-aminocyclopentyl)azetidin-3-yl]-2-(1H-tetrazol-5-yl)-4-(trifluoromethyl)biphenyl-3-sulfonamide]: the values for the pIC50 at VIM-1 (setting [5]), on NDM-1 and on IMP-1 were 7.55, 8.32 and 8.03, respectively. Further, in test [1], the “Escherichia coli MITC95” value worked out at 1.563 µM. The “Serratia marcescens MITC95” value in test [2] is 6.25 µM. For the same molecule, the “Klebsiella pneumoniae MITC95” value in test [3] amounted to 100 µM.
Turning to `NCCN1CC(c2ccc(-c3ccc(C(F)(F)F)c(S(N)(=O)=O)c3-c3nnn[nH]3)cc2)C1` [Example 812, 4′-[1-(2-aminoethyl)azetidin-3-yl]-2-(1H-tetrazol-5-yl)-4-(trifluoromethyl)biphenyl-3-sulfonamide], the results for the pIC50 at VIM-1 (setting [4]), on NDM-1 and at IMP-1 were 8.41, 8.57 and 8.24, respectively. For the same molecule, the “Escherichia coli MITC95” value in test [1] turned out to be 1.563 µM. The “Serratia marcescens MITC95” value in test [2] is 6.25 µM. For the same molecule, in test [3], the “Klebsiella pneumoniae MITC95” value came to 12.5 µM.
With `NCC1CCC(N2CC(c3ccc(-c4ccc(C(F)(F)F)c(S(N)(=O)=O)c4-c4nnn[nH]4)cc3)C2)CC1` (stereo not drawn) [Example 813, 4′-{1-[4-(aminomethyl)cyclohexyl]azetidin-3-yl}-2-(1H-tetrazol-5-yl)-4-(trifluoromethyl)biphenyl-3-sulfonamide], the pIC50 at VIM-1 (setting [5]) is 7.69; at NDM-1 it was 8.20; on IMP-1 it was 8.01. The “Escherichia coli MITC95” value in test [1] came out at 6.25 µM. In addition, the “Serratia marcescens MITC95” value in test [2] turned out to be 6.25 µM. Also, the “Klebsiella pneumoniae MITC95” value in test [3] was 100 µM.
